Test results taken from PubChem BioAssay (NCI).
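Briefly, cells in 96-well plates were exposed to five compound concentrations for 48 h, and endpoints were estimated by linear interpolation. GI50 marks 50% less growth. TGI: concentration producing complete growth inhibition.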

Columns and labels:
Assay in all cases: DTP human tumour cell line panel, 48 h
HS 578T breast = tested on: HS 578T breast
K-562 leukemia = tested on: K-562 leukemia
M14 melanoma = tested on: M14 melanoma
MALME-3M melanoma = tested on: MALME-3M melanoma
NCI-H23 lung = tested on: NCI-H23 lung
SK-MEL-28 melanoma = tested on: SK-MEL-28 melanoma
SR leukemia = tested on: SR leukemia
T-47D breast = tested on: T-47D breast
UACC-62 melanoma = tested on: UACC-62 melanoma
UO-31 renal = tested on: UO-31 renal

C=C1C(=O)O[C@H]2[C@H]1CC/C(C=Nc1ccc(C(F)(F)F)cc1N)=C\CC[C@@]1(C)O[C@@H]21
GI50 (HS 578T breast): 11.2 µM | TGI (HS 578T breast): 40.4 µM | GI50 (K-562 leukemia): 4.39 µM | TGI (K-562 leukemia): 16.5 µM | GI50 (M14 melanoma): 8.04 µM | TGI (M14 melanoma): 22.3 µM | GI50 (MALME-3M melanoma): 11.1 µM | TGI (MALME-3M melanoma): 26.2 µM | GI50 (NCI-H23 lung): 10.7 µM | TGI (NCI-H23 lung): 25.7 µM | GI50 (SK-MEL-28 melanoma): 5.85 µM | TGI (SK-MEL-28 melanoma): 20.2 µM | GI50 (SR leukemia): 2.66 µM | TGI (SR leukemia): 10.7 µM | GI50 (T-47D breast): 3.31 µM | TGI (T-47D breast): 22.1 µM | GI50 (UACC-62 melanoma): 2.91 µM | TGI (UACC-62 melanoma): 15.6 µM | GI50 (UO-31 renal): 2.87 µM | TGI (UO-31 renal): 19.3 µM

C=C1C(=O)O[C@H]2[C@H]1CC/C(COC(=O)/C=C\C(=O)NCc1ccc(Cn3c(=O)sn(-c4ccc(OC)cc4)c3=O)cc1)=C\CC[C@@]1(C)O[C@@H]21
GI50 (HS 578T breast): 0.913 µM | TGI (HS 578T breast): 2.51 µM | GI50 (K-562 leukemia): 0.603 µM | TGI (K-562 leukemia): 50 µM | GI50 (M14 melanoma): 0.603 µM | TGI (M14 melanoma): 1.36 µM | GI50 (MALME-3M melanoma): 0.806 µM | TGI (MALME-3M melanoma): 1.56 µM | GI50 (NCI-H23 lung): 0.863 µM | TGI (NCI-H23 lung): 1.84 µM | GI50 (SK-MEL-28 melanoma): 0.825 µM | TGI (SK-MEL-28 melanoma): 1.55 µM | GI50 (SR leukemia): 0.322 µM | TGI (SR leukemia): 11.8 µM | GI50 (T-47D breast): 0.839 µM | TGI (T-47D breast): 2.02 µM | GI50 (UACC-62 melanoma): 0.7 µM | TGI (UACC-62 melanoma): 1.41 µM | GI50 (UO-31 renal): 0.408 µM | TGI (UO-31 renal): 1.06 µM

CSC(=S)N/N=C/c1ccccc1
TGI (HS 578T breast): > 100 µM | TGI (K-562 leukemia): > 100 µM | TGI (M14 melanoma): > 100 µM | TGI (MALME-3M melanoma): > 100 µM | TGI (NCI-H23 lung): > 100 µM | TGI (SK-MEL-28 melanoma): > 100 µM | TGI (SR leukemia): > 100 µM | TGI (T-47D breast): 72.1 µM | TGI (UACC-62 melanoma): > 100 µM | TGI (UO-31 renal): > 100 µM

CCCN(CCC)c1ccc(C=O)cc1
GI50 (HS 578T breast): > 62.1 µM | TGI (HS 578T breast): > 100 µM | GI50 (K-562 leukemia): 25.7 µM | TGI (K-562 leukemia): > 100 µM | GI50 (M14 melanoma): > 100 µM | TGI (M14 melanoma): > 100 µM | GI50 (MALME-3M melanoma): > 81.2 µM | TGI (MALME-3M melanoma): > 100 µM | GI50 (NCI-H23 lung): 36.9 µM | TGI (NCI-H23 lung): > 100 µM | GI50 (SK-MEL-28 melanoma): > 100 µM | TGI (SK-MEL-28 melanoma): > 100 µM | GI50 (SR leukemia): 33.7 µM | TGI (SR leukemia): > 100 µM | GI50 (T-47D breast): 21.1 µM | TGI (T-47D breast): > 100 µM | GI50 (UACC-62 melanoma): 42.8 µM | TGI (UACC-62 melanoma): > 100 µM | GI50 (UO-31 renal): 36.2 µM | TGI (UO-31 renal): > 100 µM

Cc1ccc(Cl)cc1Nc1nc(C(F)(F)F)ccc1C(=O)N/N=C/c1c(Cl)cccc1Cl
GI50 (HS 578T breast): 1.04 µM | TGI (HS 578T breast): 6.18 µM | GI50 (K-562 leukemia): 0.734 µM | TGI (K-562 leukemia): > 32.1 µM | GI50 (M14 melanoma): 1 µM | TGI (M14 melanoma): 5.67 µM | GI50 (MALME-3M melanoma): 1.69 µM | TGI (MALME-3M melanoma): 5.44 µM | GI50 (NCI-H23 lung): 1.55 µM | TGI (NCI-H23 lung): 7.39 µM | GI50 (SK-MEL-28 melanoma): 1.84 µM | TGI (SK-MEL-28 melanoma): 32.1 µM | GI50 (SR leukemia): 0.251 µM | TGI (SR leukemia): 3.88 µM | GI50 (T-47D breast): 0.517 µM | TGI (T-47D breast): 5.18 µM | GI50 (UACC-62 melanoma): 0.925 µM | TGI (UACC-62 melanoma): 4.02 µM | GI50 (UO-31 renal): 1.53 µM | TGI (UO-31 renal): 5.13 µM

CC(=O)Oc1ccc2ccc(=O)oc2c1OC(C)=O
TGI (HS 578T breast): > 100 µM | TGI (K-562 leukemia): > 100 µM | TGI (M14 melanoma): > 100 µM | TGI (MALME-3M melanoma): > 100 µM | TGI (NCI-H23 lung): > 100 µM | TGI (SK-MEL-28 melanoma): > 100 µM | TGI (SR leukemia): > 100 µM | TGI (T-47D breast): > 100 µM | TGI (UACC-62 melanoma): > 100 µM | TGI (UO-31 renal): > 100 µM

COc1cc(C(=O)NC2CCN(C)CC2)ccc1Nc1ncc2c(n1)N(C1CCCC1)CC(F)(F)C(=O)N2C
GI50 (HS 578T breast): 0.0585 µM | TGI (HS 578T breast): 1.53 µM | GI50 (K-562 leukemia): < 0.01 µM | TGI (K-562 leukemia): 4.86 µM | GI50 (M14 melanoma): < 0.0148 µM | TGI (M14 melanoma): 5.09 µM | GI50 (MALME-3M melanoma): 2.64 µM | TGI (MALME-3M melanoma): 10.5 µM | GI50 (NCI-H23 lung): < 0.0114 µM | TGI (NCI-H23 lung): 2.98 µM | GI50 (SK-MEL-28 melanoma): 0.0293 µM | TGI (SK-MEL-28 melanoma): 12.1 µM | GI50 (SR leukemia): < 0.01 µM | TGI (SR leukemia): 0.448 µM | GI50 (T-47D breast): 0.177 µM | TGI (T-47D breast): 12.6 µM | GI50 (UACC-62 melanoma): < 0.0246 µM | TGI (UACC-62 melanoma): 5.84 µM | GI50 (UO-31 renal): 1.66 µM | TGI (UO-31 renal): 12.9 µM

O=C(CCCCC(=O)N/N=C\c1ccccc1Cl)N/N=C\c1ccccc1Cl
GI50 (HS 578T breast): 2.02 µM | TGI (HS 578T breast): 49 µM | GI50 (K-562 leukemia): 3.02 µM | TGI (K-562 leukemia): > 100 µM | GI50 (M14 melanoma): 2.06 µM | TGI (M14 melanoma): > 100 µM | GI50 (MALME-3M melanoma): 9.26 µM | TGI (MALME-3M melanoma): > 100 µM | GI50 (NCI-H23 lung): 13.7 µM | TGI (NCI-H23 lung): > 100 µM | GI50 (SK-MEL-28 melanoma): 61.3 µM | TGI (SK-MEL-28 melanoma): > 100 µM | GI50 (SR leukemia): > 100 µM | TGI (SR leukemia): > 100 µM | GI50 (T-47D breast): 3.36 µM | TGI (T-47D breast): > 100 µM | GI50 (UACC-62 melanoma): 3.98 µM | TGI (UACC-62 melanoma): > 100 µM | GI50 (UO-31 renal): 3.32 µM | TGI (UO-31 renal): > 100 µM

O=C(O)c1cc(N/C=C2\C(=O)c3ccccc3OC2O)ccc1O (stereo not given)
GI50 (HS 578T breast): 19.6 µg/mL | TGI (HS 578T breast): 140 µg/mL | GI50 (K-562 leukemia): 13.3 µg/mL | TGI (K-562 leukemia): 72.1 µg/mL | GI50 (M14 melanoma): 25.4 µg/mL | TGI (M14 melanoma): 66.1 µg/mL | GI50 (MALME-3M melanoma): 7.59 µg/mL | TGI (MALME-3M melanoma): 40.8 µg/mL | GI50 (NCI-H23 lung): 20.4 µg/mL | TGI (NCI-H23 lung): 59.6 µg/mL | GI50 (SK-MEL-28 melanoma): 31.8 µg/mL | TGI (SK-MEL-28 melanoma): 113 µg/mL | GI50 (SR leukemia): 4.77 µg/mL | TGI (SR leukemia): 36.9 µg/mL | GI50 (T-47D breast): 5.34 µg/mL | TGI (T-47D breast): 46.2 µg/mL | GI50 (UACC-62 melanoma): 15.6 µg/mL | TGI (UACC-62 melanoma): 62.8 µg/mL | GI50 (UO-31 renal): 10.1 µg/mL | TGI (UO-31 renal): 46.2 µg/mL

CCOC(=O)c1c[nH]c2c(OCc3ccccc3)c3ccccc3c(O)c2c1=O
GI50 (HS 578T breast): 13.5 µM | TGI (HS 578T breast): 48 µM | GI50 (K-562 leukemia): 3.15 µM | TGI (K-562 leukemia): > 39.1 µM | GI50 (M14 melanoma): 11.3 µM | TGI (M14 melanoma): > 59.4 µM | GI50 (MALME-3M melanoma): 5.63 µM | TGI (MALME-3M melanoma): 26.6 µM | GI50 (NCI-H23 lung): 6.75 µM | TGI (NCI-H23 lung): 28.6 µM | GI50 (SK-MEL-28 melanoma): 25.8 µM | TGI (SK-MEL-28 melanoma): > 100 µM | GI50 (SR leukemia): 21.3 µM | TGI (SR leukemia): > 100 µM | GI50 (T-47D breast): 18.5 µM | TGI (T-47D breast): 69.6 µM | GI50 (UACC-62 melanoma): 3.1 µM | TGI (UACC-62 melanoma): 15.8 µM | GI50 (UO-31 renal): 21.7 µM | TGI (UO-31 renal): > 100 µM
